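Five compound concentrations were applied to cells in 96-well plates for 48 hours; endpoints were derived by simple linear interpolation of the resulting dose-response curve. GI50: concentration for 50% inhibition of growth. TGI marks complete inhibition of growth.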
Tests used:
Assay in all cases: NCI-60 cell line screen, 48 h
SF-295 CNS = tested on: SF-295 CNS
SNB-75 CNS = tested on: SNB-75 CNS
HCT-15 colon = tested on: HCT-15 colon
ACHN renal = tested on: ACHN renal
OVCAR-5 ovarian = tested on: OVCAR-5 ovarian
M14 melanoma = tested on: M14 melanoma
HCC-2998 colon = tested on: HCC-2998 colon
NCI-H23 lung = tested on: NCI-H23 lung
K-562 leukemia = tested on: K-562 leukemia
NCI-H460 lung = tested on: NCI-H460 lung

SMILES	GI50 (SF-295 CNS) [µM]	TGI (SF-295 CNS) [µM]	GI50 (SNB-75 CNS) [µM]	TGI (SNB-75 CNS) [µM]	GI50 (HCT-15 colon) [µM]	TGI (HCT-15 colon) [µM]	GI50 (ACHN renal) [µM]	TGI (ACHN renal) [µM]	GI50 (OVCAR-5 ovarian) [µM]	TGI (OVCAR-5 ovarian) [µM]	GI50 (M14 melanoma) [µM]	TGI (M14 melanoma) [µM]	GI50 (HCC-2998 colon) [µM]	TGI (HCC-2998 colon) [µM]	GI50 (NCI-H23 lung) [µM]	TGI (NCI-H23 lung) [µM]	GI50 (K-562 leukemia) [µM]	TGI (K-562 leukemia) [µM]	GI50 (NCI-H460 lung) [µM]	TGI (NCI-H460 lung) [µM]
Cc1ccn2c(-c3csc(Nc4cccc(O)c4)n3)c(C)nc2c1	2.34	11.9	0.225	1.65	0.273	24	0.812	> 100	9.29	> 81.2	0.359	18	2.81	17.4	1.01	19.7	0.196	> 38.2	0.423	16.9
[CH3][Sn]([CH3])([CH3])[O]C(=O)C(O)c1ccccc1 (configuration not stated)	3.67	16.9	5.61	54.3	3.57	19.1	4.27	> 100	9.91	76.4	1.98	4.15	2.32	7.15	6.68	61.8	5.27	> 100	3.9	> 69.8
N#Cc1ccc(N2Cc3cc(Cl)ccc3OC3=C2C(=O)N(Cc2ccc(F)cc2)C3=O)cc1	4.65	14.5	0.558	1.72	0.543	1.43	0.479	0.913	0.737	1.93	2.81	9.33	0.973	2.89	0.811	2.7	0.313	1.68	1.02	3.71
O=C(N/N=C/c1ccncc1)c1ccc(C(F)(F)F)nc1Nc1cccc(C(F)(F)F)c1	1.37	3.91	4.34	17	0.804	11.7	3.46	12.1	2.83	14.8	1.34	4.03	2.15	8.94	4.34	16.2	2.69	11.8	2.84	10.4
O=c1c2cc(Br)ccc2[nH]c(=S)n1-c1ccccc1	–	> 100	–	> 100	–	> 100	–	> 100	–	> 100	–	> 100	–	> 100	–	> 100	–	> 100	–	> 100
CC(=O)NC1CCCN(O)C(=O)/C=C(/C)CCOC(=O)C(NC(C)=O)CCCN(O)C(=O)/C=C(/C)CCOC(=O)C(NC(C)=O)CCCN(O)C(=O)/C=C(/C)CCOC1=O.[Fe] (configuration not stated)	> 100	> 100	> 100	> 100	> 100	> 100	> 100	> 100	> 100	> 100	> 100	> 100	> 100	> 100	> 100	> 100	–	–	> 100	> 100
Nc1cccc2c1CN(C1CCC(=O)NC1=O)C2=O (configuration not stated)	> 100	> 100	> 100	> 100	> 100	> 100	> 100	> 100	> 100	> 100	> 100	> 100	> 100	> 100	> 100	> 100	> 100	> 100	> 100	> 100
O=S1CCN(Cc2ccc(-c3ccc4ncnc(Nc5ccc(OCc6ccccc6)c(F)c5)c4c3)o2)CC1	7.63	> 22.1	> 13.1	> 25	8.13	> 25	0.757	> 25	13.9	> 25	6.26	> 21.6	9.93	> 25	11.3	> 25	11.9	> 25	7.91	> 25
O=NNc1ccc(Sc2ccc3ccccc3c2)cn1	–	> 100	–	> 100	–	60	–	> 100	–	> 100	–	60.2	–	31.2	–	> 100	–	> 100	–	> 100
NC(Cc1ccc(O)cc1)C(=O)N/N=C/c1ccc(N(CCCl)CCCl)cc1 (configuration not stated)	1.37	6.35	12.6	> 100	38.6	> 100	6.42	> 100	27.4	> 100	17.5	81.2	24.1	> 100	12.3	> 100	3.59	> 100	0.647	26.7
COC(=O)c1c2c(c(C)[n+]([O-])c1C)C(=O)C=C(NCc1ccc(Br)cc1)C2=O	0.242	1.32	1.58	2.94	0.167	1.95	0.575	2.1	1.33	2.83	0.0442	1.04	0.491	1.9	0.721	3.32	0.0472	> 100	0.431	1.99
CC(=O)Nc1cc(C(c2ccccc2)c2ccccc2)cc(C(c2ccccc2)c2ccccc2)c1C	2.64	7.49	21.4	> 100	7.12	> 100	8.71	> 100	> 100	> 100	> 100	> 100	14.7	> 100	6.22	> 100	2.83	> 100	7.49	> 100
CN(C)CCCNC(=O)c1cccc2nc3ccccc3nc12	–	> 55.4	–	> 100	–	> 82.4	–	> 100	–	54.3	–	> 53.3	–	50.4	–	33.5	–	60.4	–	–

Reference: PubChem BioAssay (NCI)
